Reference: patent US5326780A, “Imidazole derivatives having anti-HIV activity” (priority 1992, dated 1994)
≈ marks a conversion by molar mass, not a printed value. Like-named read-outs stand apart in the source and are kept apart here.

Columns and labels:
Assay type in all cases: cell-based
HIV (HTLV-IIIB strain) = test: Infection inhibitory test: anti-HIV activity, MT-4 cells infected with HIV, MTT; conditions: Human immunodeficiency virus 1, IIIB, MT4, 120 h
Protocol: Anti-HIV activity and cytotoxicity are tested in the following manners.
(§1) (1) A human T cell MOLT-4 clone 8, a strain continuously infected with HIV (HTLV-IIIB strain), was incubated in RPMI-1640 medium containing 10% bovine fetus serum and the supernatant was isolated by filtration. After the determination of virus titer, the supernatant was stored at -80° C. A compound to be tested was diluted with the same medium to a given concentration and poured into 96-well microtiter plates by 100 μl/well. To the well is added 50 μl (2.5×10^4 cells) MT-4 cell suspensions, followed by the addition of 50 μl [600 pfu (plaque forming unit)] HIV-containing supernatant previously diluted with the same medium.
(§2) (2) After 5-day-incubation at 37° C. in a carbon dioxide incubator, 30 μl MTT {3-(4,5-diemthylthiazol-2-yl)-2,5-diphenyltetrazolium bromide), 5 mg/ml in PBS} was added to each well, and the incubation was continued for another 1 hour, during which surviving cells reduce MTT to precipitate folmazan.
(§3) The resultant folmazan was eluted by replacing 150 μl supernatant of a culture in each well by 150 μl solution comprising 10% triton X - 100 and isopropanol containing 0.4 v/v % HCl and shaking by means of a plate mixer. The resultant folmazan was assayed at 0D 540 nm, and the result was evaluated by comparison with that obtained in a control test.
IC50 is defined as a concentration of the compound (I) that gives a 50% inhibition against vital cytotoxicity.

[1] = Cytotoxicity, MT-4 cells without virus, MTT; conditions: human
Protocol: as §1, §2, §3
(§4) Cytotoxicity of a compound (I) was evaluated in a similar manner as described in 1 above except that 50 μl of the same medium is added to each well in place of the HIV-containing supernatant (viral solurtion).
(§5) CC50 is defiend as a concentration of the compound (I) that gives 50% cytotoxicity.

MT-4 cell = test: Cytotoxicity, MT-4 cells without virus, MTT; conditions: 50% cytotoxicity; MT-4 cells without virus, 5-day incubation, MTT
Protocol: as §1, §2, §3, §4, §5

[2] = 50% inhibition of viral cytotoxicity, MT-4 cells, 5-day incubation at 37 °C, MTT, read-out: IC50

Compound | IC50 (HIV (HTLV-IIIB strain); [2]) | CC50 at 120 h ([1]; mt-4 cells) | CC50 at 120 h ([1]; 50% cytotoxicity, MT-4 cells without virus, 5-day incubation, MTT, read-out: CC50) | IC50 (HIV (HTLV-IIIB strain)) | CC50 (MT-4 cell)
CCOCn1c(C)nc(Cc2cc(F)cc(F)c2)c1C(C)C [Compound I-93] | 0.06 µg/mL (≈ 0.195 µM) | 12.5 to 25 µg/mL (≈ 40.5 to 81.1 µM) | – | – | –
CCOCn1c(C)nc(CC)c1Sc1cc(C)cc(C)c1 [Compound I-15] | 0.063 to 0.12 µg/mL (≈ 0.207 to 0.394 µM) | 10 to 20 µg/mL (≈ 32.8 to 65.7 µM) | – | – | –
c1ccc(COCn2cncc2Sc2ccccc2)cc1 [Compound I-5, 1-benzyloxymethyl-5-phenylthioimidazoe nitrate] | 0.13 to 0.25 µg/mL | 12.5 to 25 µg/mL | – | – | –
CCc1nc(C)n(COCCO)c1Sc1cc(C)cc(C)c1 [Compound I-29, 5-(3,5-Dimethylphenylthio)-4-ethyl-1-[(2-hydroxyethoxy)-methyl]-2-methylimidazole] | 0.13 to 0.25 µg/mL (≈ 0.406 to 0.78 µM) | 25 to 50 µg/mL (≈ 78 to 156 µM) | – | – | –
CCOCn1c(C)nc(Cc2cc(Cl)cc(Cl)c2)c1C(C)C [Compound I-90] | 0.5 to 1 µg/mL (≈ 1.47 to 2.93 µM) | 1 to 10 µg/mL (≈ 2.93 to 29.3 µM) | – | – | –
CCOCn1c(C)nc(C(C)C)c1Sc1ccccc1 [Compound I-18] | 0.016 µg/mL (≈ 0.0551 µM) | 25 to 50 µg/mL (≈ 86.1 to 172 µM) | – | – | –
Cc1nc(C(C)C)c(Sc2ccccc2)n1COCc1ccccc1 [Compound I-17] | 0.016 µg/mL (≈ 0.0454 µM) | – | – | – | –
CCCc1nc(Br)n(COCc2ccccc2)c1Sc1ccccc1 [Compound I-13] | – | 12.5 to 25 µg/mL (≈ 29.9 to 59.9 µM) | – | – | –
CCc1nc(C)n(COCc2ccccc2)c1Sc1cc(C)cc(C)c1 [Compound I-14] | 0.016 to 0.032 µg/mL (≈ 0.0437 to 0.0873 µM) | 10 to 20 µg/mL (≈ 27.3 to 54.6 µM) | – | – | –
Cc1cc(C)cc(Cc2c(C(C)C)nc(C)n2COCc2ccccc2)c1 [Compound I-50] | 0.016 µg/mL (≈ 0.0441 µM) | 6.25 to 12.5 µg/mL (≈ 17.2 to 34.5 µM) | – | – | –
Cc1nc(Cc2cc(F)cc(F)c2)c(C(C)C)n1COCc1ccccc1 [Compound I-92] | 0.25 µg/mL (≈ 0.675 µM) | 6.25 to 12.5 µg/mL (≈ 16.9 to 33.7 µM) | – | – | –
CC(C)=CCN1Cc2cc(Cl)cc3[nH]c(=S)n(c23)C[C@@H]1C [TIBO (R-82913), reference compound] | 0.13 to 0.25 µg/mL (≈ 0.404 to 0.777 µM) | – | 12.5 to 25 µg/mL (≈ 38.8 to 77.7 µM) | – | –
Cc1nc(C(C)C)c(Cc2cc(F)cc(F)c2)n1COCc1ccccc1 [Compound I-69] | 0.003 µg/mL (≈ 0.0081 µM) | 6.25 to 12.5 µg/mL (≈ 16.9 to 33.7 µM) | – | – | –
CCc1ncn(COCc2ccccc2)c1Sc1ccccc1 [Compound I-4, 1-benzyloxymethyl-4-ethyl-5-phenylthioimidazole] | 0.13 to 0.25 µg/mL (≈ 0.401 to 0.771 µM) | 12.5 to 25 µg/mL (≈ 38.5 to 77.1 µM) | – | – | –
Cc1nc(C(C)C)c(Cc2ccccc2)n1COCc1ccccc1 [Compound I-42, 5-Benzyl-1-benzyloxymethyl-4-isopropyl-2-methylimidazole] | 0.016 µg/mL (≈ 0.0478 µM) | 3.1 to 6.25 µg/mL (≈ 9.27 to 18.7 µM) | – | – | –
Cc1cc(C)cc(Sc2c(C(C)C)nc(C)n2COCc2ccccc2)c1 [Compound I-16] | 0.016 to 0.031 µg/mL (≈ 0.042 to 0.0815 µM) | – | – | – | –
CCc1nc(C)n(COCc2ccccc2)c1Sc1ccccc1 [Compound I-1, 1-benzyloxymethyl-4-ethyl-2-methyl-5-phenylthioimidazole] | 0.03 to 0.06 µg/mL (≈ 0.0886 to 0.177 µM) | – | – | – | –
CCCc1ncn(COCc2ccccc2)c1Sc1ccccc1 [Compound I-9] | – | 12.5 to 25 µg/mL (≈ 36.9 to 73.9 µM) | – | – | –
CCc1nc(Br)n(COCc2ccccc2)c1Sc1ccccc1 [Compound I-12] | 0.06 to 0.13 µg/mL (≈ 0.149 to 0.322 µM) | 12.5 to 25 µg/mL (≈ 31 to 62 µM) | – | – | –
CCOCn1c(C)nc(C(C)C)c1Cc1cccnc1 [Compound I-58] | 0.5 µg/mL (≈ 1.83 µM) | > 100 µg/mL | – | – | –
Cc1cn([C@H]2C[C@H](N=[N+]=[N-])[C@@H](CO)O2)c(=O)[nH]c1=O [AZT, azidodeoxythymidine, reference compound] | – | – | – | 0.005 to 0.01 µg/mL (≈ 0.0187 to 0.0374 µM) | 25 µg/mL (≈ 93.5 µM)
CCOCn1c(C)nc(C(C)C)c1Cc1cc(Cl)cc(Cl)c1 [Compound I-67] | 0.005 µg/mL (≈ 0.0147 µM) | 6.25 to 12.5 µg/mL (≈ 18.3 to 36.6 µM) | – | – | –
Cc1nc(Cc2cc(Cl)cc(Cl)c2)c(C(C)C)n1COCc1ccccc1 [Compound I-91] | 0.5 to 1 µg/mL (≈ 1.24 to 2.48 µM) | 10 to 100 µg/mL (≈ 24.8 to 248 µM) | – | – | –
